Results taken from US20240101592A1, “COMPOSITIONS AND METHODS FOR TREATING CNS DISORDERS” (Sage Therapeutics, Inc., priority 2020, published 2024).

Molecular target: GABAA receptor ([35S]-TBPS binding, rat brain cortical membranes)
Assay: Steroid inhibition of [35S]-TBPS binding
Conditions: 3 nM [35S]-TBPS, in the presence of 5 mM GABA, 90 min at room temp
Protocol: Steroid Inhibition of TBPS Binding
[^35S]-t-Butylbicyclophosphorothionate (TBPS) binding assays using rat brain cortical membranes in the presence of 5 mM GABA has been described (Gee et al, J. Pharmacol. Exp. Ther. 1987, 241, 346-353; Hawkinson et al, Mol. Pharmacol. 1994, 46, 977-985; Lewin, A. H et al., Mol. Pharmacol. 1989, 35, 189-194).
Briefly, cortices are rapidly removed following decapitation of carbon dioxide-anesthetized Sprague-Dawley rats (200-250 g). The cortices are homogenized in 10 volumes of ice-cold 0.32 M sucrose using a glass/teflon homogenizer and centrifuged at 1500×g for 10 min at 4° C. The resultant supernatants are centrifuged at 10,000×g for 20 min at 4° C. to obtain the P2 pellets. The P2 pellets are resuspended in 200 mM NaCl/50 mM Na—K phosphate pH 7.4 buffer and centrifuged at 10,000×g for 10 min at 4° C. This washing procedure is repeated twice and the pellets are resuspended in 10 volumes of buffer. Aliquots ([…]) of the membrane suspensions are incubated with 3 nM [^35S]-TBPS and […] aliquots of test drug dissolved in dimethyl sulfoxide (DMSO) (final 0.5%) in the presence of 5 mM GABA. The incubation is brought to a final volume of 1.0 mL with buffer. Nonspecific binding is determined in the presence of […] and ranged from 15 to 25%. Following a 90 min incubation at room temp, the assays are terminated by filtration through glass fiber filters (Schleicher and Schuell No. 32) using a cell harvester (Brandel) and rinsed three times with ice-cold buffer. Filter bound radioactivity is measured by liquid scintillation spectrometry. Non-linear curve fitting of the overall data for each drug averaged for each concentration is done using Prism (GraphPad). […] The concentration of test compound producing 50% inhibition (IC50) of specific binding and the maximal extent of inhibition (Imax) are determined for the individual experiments with the same model used for the overall data and then the means±SEM.s of the individual experiments are calculated.
Various compounds are or can be screened to determine their potential as modulators of [^35S]-TBPS binding in vitro. These assays are or can be performed in accordance with the above.

In the case of `CC(Cn1cc(C#N)cn1)[C@H]1[C@H]2C[C@H]2[C@H]2[C@@H]3CC[C@@H]4C[C@](C)(O)CC[C@@H]4[C@H]3CC[C@@]21C` (single isomer, unassigned) [Compound No. 10], the IC50 is reported as < 100 nM.
`CC(Cn1cc(C#N)cn1)[C@H]1[C@H]2C[C@H]2[C@H]2[C@@H]3CC[C@@H]4C[C@](C)(O)CC[C@@H]4[C@H]3CC[C@@]21C` (single isomer, unassigned) [Compound No. 11] was tested, and the IC50 was < 100 nM.
In the case of `C[C@@]1(O)CC[C@H]2[C@H](CC[C@@H]3[C@@H]2CC[C@@]2(C)[C@H]3[C@@H]3C[C@@H]3[C@@H]2[C@](C)(O)Cn2cc(C#N)cn2)C1` (single isomer, unassigned) [Compound No. 12], the IC50 is reported as < 100 nM.
In the case of `C[C@@]1(O)CC[C@H]2[C@H](CC[C@@H]3[C@@H]2CC[C@@]2(C)[C@H]3[C@@H]3C[C@@H]3[C@@H]2[C@@](C)(O)Cn2cc(C#N)cn2)C1` (single isomer, unassigned) [Compound No. 13], the IC50 is reported as < 100 nM.
For `CCC[C@@]1(O)CC[C@H]2C(CC[C@@H]3[C@@H]2CC[C@@]2(C)[C@H]3[C@@H]3C[C@@H]3[C@@H]2C(=O)Nc2ccc(C#N)cn2)C1` (stereo in doubt) [Compound No. 15, (2R,4aS,4bR,6aS,7S,7aS,8aR,8bR,8cR,10aR)-N-(5-cyanopyridin-2-yl)-2-hydroxy-6a-methyl-2-propyloctadecahydrocyclopropa[4,5]cyclopenta[1,2-a]phenanthrene-7-carboxamide], the IC50 was < 100 nM.
With `C[C@@]1(O)CC[C@H]2[C@H](CC[C@@H]3[C@@H]2CC[C@@]2(C)[C@H]3C[C@H]3C[C@H]3[C@@H]2C(=O)Cn2cc(C#N)cn2)C1` [Compound No. 1, 1-(2-((2R,4aS,4bR,6aS,7S,7aR,8aR,9aS,9bR,11aR)-2-hydroxy-2,6α-dimethyloctadecahydro-1H-cyclopropa[b]chrysen-7-yl)-2-oxoethyl)-1H-pyrazole-4-carbonitrile] the IC50 was < 100 nM.
With `C[C@@]1(O)CC[C@H]2[C@H](CC[C@@H]3[C@@H]2CC[C@@]2(C)[C@H]3C[C@H]3C[C@H]3[C@@H]2[C@](C)(O)Cn2cc(C#N)cn2)C1` [Compound No. 2, 1-((S)-2-hydroxy-2-((2R,4aS,4bR,6aS,7S,7aR,8aR,9aS,9bR,11aR)-2-hydroxy-2,6a-dimethyloctadecahydro-1H-cyclopropa[b]chrysen-7-yl)propyl)-1H-pyrazole-4-carbonitrile] the IC50 was < 100 nM.
For `C[C@@]1(O)CC[C@H]2[C@H](CC[C@@H]3[C@@H]2CC[C@@]2(C)[C@H]3C[C@H]3C[C@H]3[C@@H]2[C@@](C)(O)Cn2cc(C#N)cn2)C1` [Compound No. 3], the IC50 was < 100 nM.
For `C[C@@H](Cn1cc(C#N)cn1)[C@H]1[C@@H]2C[C@@H]2C[C@H]2[C@@H]3CC[C@@H]4C[C@](C)(O)CC[C@@H]4[C@H]3CC[C@]12C` [Compound No. 4, 1-((R)-2-((2R,4aS,4bR,6aS,7R,7aR,8aR,9aS,9bR,11aR)-2-hydroxy-2,6a-dimethyloctadecahydro-1H-cyclopropa[b]chrysen-7-yl)propyl)-1H-pyrazole-4-carbonitrile], the IC50 was < 100 nM.
`C[C@H](Cn1cc(C#N)cn1)[C@H]1[C@@H]2C[C@@H]2C[C@H]2[C@@H]3CC[C@@H]4C[C@](C)(O)CC[C@@H]4[C@H]3CC[C@]12C` [Compound No. 5, 1-((S)-2-((2R,4aS,4bR,6aS,7R,7aR,8aR,9aS,9bR,11aR)-2-hydroxy-2,6a-dimethyloctadecahydro-1H-cyclopropa[b]chrysen-7-yl)propyl)-1H-pyrazole-4-carbonitrile] was tested, and the IC50 was < 100 nM.
For `C[C@@]1(O)CC[C@H]2[C@H](CC[C@@H]3[C@@H]2CC[C@@]2(C)[C@H]3C[C@@H]3C[C@@H]3[C@@H]2C(=O)Cn2cc(C#N)cn2)C1` [Compound No. 6, 1-(2-((2R,4aS,4bR,6aS,7S,7aS,8aS,9aS,9bR,11aR)-2-hydroxy-2,6a-dimethyloctadecahydro-1H-cyclopropa[b]chrysen-7-yl)-2-oxoethyl)-1H-pyrazole-4-carbonitrile], the IC50 was < 100 nM.
In the case of `C[C@@]1(O)CC[C@H]2[C@H](CC[C@@H]3[C@@H]2CC[C@]2(C)[C@H](C(=O)Cn4cc(C#N)cn4)[C@H]4C[C@H]4C[C@@H]32)C1` [Compound No. 7, 1-(2-((2R,4aS,4bR,6aS,7R,7aS,8aS,9aS,9bR,11aR)-2-hydroxy-2,6a-dimethyloctadecahydro-1H-cyclopropa[b]chrysen-7-yl)-2-oxoethyl)-1H-pyrazole-4-carbonitrile], the IC50 is reported as > 1000 nM.
`C[C@@]1(O)CC[C@H]2[C@H](CC[C@@H]3[C@@H]2CC[C@@]2(C)[C@H]3[C@@H]3C[C@@H]3C[C@@H]2C(=O)Cn2cc(C#N)cn2)C1` [Compound No. 8, 1-(2-((1S,2aR,3aR,3bS,3cR,5aR,7R,9aS,9bR,11aS)-7-hydroxy-7,11a-dimethyloctadecahydro-1H-cyclopropa[c]chrysen-1-yl)-2-oxoethyl)-1H-pyrazole-4-carbonitrile] was tested, and the IC50 was < 100 nM.
For `CC(=O)[C@H]1[C@H]2C[C@H]2[C@H]2[C@@H]3CC[C@@H]4C[C@](C)(O)CC[C@@H]4[C@H]3CC[C@@]21C` [Compound No. 9, 1-((2R,4aS,4bR,6aS,7S,7aS,8aR,8bR,8cR,10aR)-2-hydroxy-2,6a-dimethyloctadecahydrocyclopropa[4,5]cyclopenta[1,2-a]phenanthren-7-yl)ethanone], the IC50 was < 100 nM.
`CCC[C@@]1(O)CC[C@@]2(C)[C@@H](CC[C@H]3[C@@H]4[C@@H]5C[C@@H]5[C@H]([C@@](C)(O)Cn5cc(C#N)cn5)[C@@]4(C)CC[C@@H]32)C1` [Compound No. 14, 1-((R)-2-hydroxy-2-((2R,4aS,4bS,6aS,7S,7aS,8aR,8bS,8cR,10aS)-2-hydroxy-4a,6a-dimethyl-2-propyloctadecahydrocyclopropa[4,5]cyclopenta[1,2-a]phenanthren-7-yl)propyl)-1H-pyrazole-4-carbonitrile] was tested, and the IC50 was > 1000 nM.
With `COC[C@@]1(O)CC[C@H]2[C@@H](CC[C@@H]3[C@@H]2CC[C@@]2(C)[C@H]3[C@@H]3C[C@@H]3[C@@H]2C(C)=O)C1` [Compound No. 16, 1-((2R,4aS,4bR,6aS,7S,7aS,8aR,8bR,8cR,10aS)-2-hydroxy-2-(methoxymethyl)-6a-methyloctadecahydrocyclopropa[4,5]cyclopenta[1,2-a]phenanthren-7-yl)ethanone] the IC50 was < 100 nM.
`COC[C@@]1(O)CC[C@H]2[C@@H](CC[C@@H]3[C@@H]2CC[C@@]2(C)[C@H]3[C@@H]3C[C@@H]3[C@@H]2[C@H](C)Cn2nnc(C)n2)C1` [Compound No. 17, (2R,4aS,4bR,6aS,7R,7aS,8aR,8bR,8cR,10aS)-2-(methoxymethyl)-6a-methyl-7-((S)-1-(5-methyl-2H-tetrazol-2-yl)propan-2-yl)octadecahydrocyclopropa[4,5]cyclopenta[1,2-a]phenanthren-2-ol] gave an IC50 of 100 to 1000 nM.
